Converted amounts (≈) assume the structure as drawn.
How the values were obtained:
[1] = Refinement of intrinsic and salt solubility with pDISOL-X
Description: To develop a solution speciation model, the experimental data of log S—pH were used as input into the computer program pDISOL-X [30]. The computational algorithm considers the contributions of all species present in solution, including all buffer components. The program derives its own implicit solubility equations internally, given any practical number of equilibria and estimated constants. The equilibrium constants are subsequently refined by weighted nonlinear least-squares regression. The method can test for the presence of specific buffer drug species. The program assumes an initial condition of a suspension of the solid drug in a solution, ideally with the suspension saturated over a wide range of pH. The software calculates the species distribution as a consequence of a sequence of additions of standardized strong-acid titrant HCl to simulate the suspension pH-speciation down to pH ~ 0, the staging point for the subsequent operation. […] The ionic strength is rigorously calculated at each step, and pKa values (as well as the solubility products and the aggregation and complexation constants) are adjusted accordingly. At the end of the pH-speciation simulation, the calculated log S vs. pH curve is compared to log S vs. pH measured. A log S-weighted nonlinear least squares refinement begins to refine the proposed equilibrium model, using analytical expressions for the differential equations. The process is repeated until the differences between calculated and measured log S values reach a minimum.

[2] = Human oral fraction absorbed estimated from rat intestinal permeability; conditions: calculated from rat permeability values in all segments (whole small intestine)
Description: The permeability values obtained in the different intestinal sections (See Table 4) corroborate the results obtained in the cell lines. […] This supports that if a compound has a high absorbed dose fraction, it will have a high-permeability, not necessarily in the jejunum, but somewhere along the relevant intestinal absortive regions. Correlations between permeability values in the rat small intestine (whole or segments) obtained by Doluisio’s method and their correlation with the orally absorbed fraction in humans were previously published. In fact, Fabs can be calculated considering the permeability values in all segments (whole small intestine) and the estimated oral absorbed fraction was 85.12%. According to this property, the drug may be a good candidate to be formulated for oral administration.

[3] = Thermodynamic solubility, shake-flask saturation method, and dose number; format: physicochemical; conditions: for solubility: USP buffer solution; for Do (dose number): D = 140 mg, 250 mL
Procedure: For the solubility study, six buffer solutions (pH 1.2, 3.0, 4.0, 4.5, 6.8 and 7.4) were prepared following the protocols published in the USP XXXVIII, United States Pharmacopoeia, as described above.
Solubility experiments for JM-20 were carried out according to the main regulatory guidelines for biowaivers. The tests were performed at the three recommended pH values (pH 1.2, 4.5 and 6.8) as well as pH […], 4.0 and 7.4 (USP buffer formulations). The shake-flask saturation method proposed by Baka et al. was used in the solubility study and the recommendations of Avdeef et al. were followed to improve the quality of the solubility data. The temperature was regulated at 37 °C. Equilibration times were 6 h stirring + 18 h sedimentation. At the end of equilibration, the two phases were separated by careful decantation. The samples were analyzed with a Thermo Fisher UV-Vis Spectrophotometer (λmax = 262 nm). A linear range of 2–20 μg/mL was obtained (r^2 > 0.99). Once the solubility range was determined, the dose number (Do) was calculated following Equation (1) (1) Do=D/Vo/Cs where D is the highest strength or highest dose administered (mg) according to FDA or EMA criteria, Vo is the volume of water ([…]).

[4] = Provisional BCS classification; set-up: key: drugs with high solubility/high permeability (Class 1); drugs with low solubility/high permeability (Class 2); drugs with high solubility/low permeability (Class 3); drugs with low solubility/low permeability (Class 4)
Description: The Biopharmaceutics Classification System (BCS) is a widely used scientific framework for waiver of in vivo bioequivalence studies, as well as for decision-making in drug discovery and development. This tool classifies drug substances according to solubility/dosage and permeability values as follows: drugs with high solubility/high permeability (Class 1), drugs with low solubility/high permeability (Class 2), drugs with high solubility/low permeability (Class 3) and drugs with low solubility/low permeability (Class 4). BCS has proven to be a very important tool for the identification of compounds whose solubility and absorption characteristics may be sensitive to physiological and formulation variables, allowing early optimization in the preformulation stages from the knowledge of the physicochemical properties of the active pharmaceutical ingredient (API). In this sense, it is evident that new compounds with low permeability and solubility/dissolution will have low and highly variable oral bioavailability, which may limit the chances of developing a clinically useful product.
Different provisional biopharmaceutical classification systems have been described in the literature. They mainly use alternative methodologies to predict intestinal permeability. Following the proposal of Kasim et al., JM-20 is a BCS Class 2, based on the aqueous solubility value at room temperature and in silico partition coefficients (log P and ClogP). JM-20 is also classified as BCS class 2 compound by the method proposed by Pham-The et al. where a provisional biopharmaceutical classification was developed based on solubility data (dose number, Do) and predicted or measured permeability in Caco-2 cells. At the same time, permeability values of JM-20 obtained with in vitro cell lines and in situ perfusion in rat were considered for the biopharmaceutical classification of this compound.

solubility ([1]; 37 °C, read-out: So, intrinsic solubility calculated by pDISOL-X): 12 µg/mL
solubility ([1]; aqueous buffer, pH 3.5, 37 °C, read-out: Solubility calculated by pDISOL-X): 14.3 µg/mL
solubility ([1]; aqueous buffer, pH 4.0, 37 °C, read-out: Solubility calculated by pDISOL-X): 18.9 µg/mL
solubility ([1]; aqueous buffer, pH 4.5, 37 °C, read-out: Solubility calculated by pDISOL-X): 74.9 µg/mL
solubility ([1]; aqueous buffer, pH 6.8, 37 °C, read-out: Solubility calculated by pDISOL-X): 12.5 µg/mL
solubility ([1]; aqueous buffer, pH 7.4, 37 °C, read-out: Solubility calculated by pDISOL-X): 11.9 µg/mL
solubility ([1]; pH 1.2, 37 °C, read-out: Solubility calculated by pDISOL-X): 3.3 µg/mL
Estimated oral absorbed fraction (Fabs) in humans [2]: 85.12%
solubility ([3]; aqueous buffer, thermodynamic from solid, buffer pH 1.2, 37 °C, shake-flask, read-out: Solubility ± SD): 9.18 ± 0.16 µg/mL (≈ 22.7 µM)
solubility ([3]; aqueous buffer, thermodynamic from solid, buffer pH 3.5, 37 °C, shake-flask, read-out: Solubility ± SD): 12.7 ± 0.83 µg/mL (≈ 31.5 µM)
solubility ([3]; aqueous buffer, thermodynamic from solid, buffer pH 4.0, 37 °C, shake-flask, read-out: Solubility ± SD): 25.4 ± 0.66 µg/mL (≈ 62.8 µM)
solubility ([3]; aqueous buffer, thermodynamic from solid, buffer pH 4.5, 37 °C, shake-flask, read-out: Solubility ± SD): 30.8 ± 1.29 µg/mL (≈ 76.3 µM)
solubility ([3]; aqueous buffer, thermodynamic from solid, buffer pH 6.8, 37 °C, shake-flask, read-out: Solubility ± SD): 11.3 ± 0.69 µg/mL (≈ 27.9 µM)
solubility ([3]; aqueous buffer, thermodynamic from solid, buffer pH 7.4, 37 °C, shake-flask, read-out: Solubility ± SD): 12.6 ± 0.36 µg/mL (≈ 31.3 µM)
solubility ([3]; pH 1.2, acidic pH, read-out: Solubility at acidic pH (abstract)): 9.18 ± 0.16 µg/mL (≈ 22.7 µM)
Dose number (Do) ([3]; at the different pH values, dose 140 mg): greater than 1
D0 (dose number) ([3]; calculated with the lowest aqueous solubility): 61
Do (dose number) ([3]; pH 1.2): 61.00
Do (dose number) ([3]; pH 3.5): 44.03
Do (dose number) ([3]; pH 4.0): 22.06
Do (dose number) ([3]; pH 4.5): 18.16
Do (dose number) ([3]; pH 6.8): 49.56
Do (dose number) ([3]; pH 7.4): 44.30
BCSCaco-2 ([4]; BCS class from dose number and Caco-2 permeability): 2
BCSMDCK ([4]; BCS class from dose number and MDCK permeability): 2
BCSrat ([4]; BCS class from dose number and rat in situ permeability): 2
BCSGlobal ([4]; overall provisional BCS class): 2
Structure (SMILES): CCOC(=O)C1=C(C)NC2=C(C=Nc3ccccc3N2)C1c1ccccc1[N+](=O)[O-] (stereo not drawn) [JM-20, 3-ethoxycarbonyl-2-methyl-4-(2-nitrophenyl)-4,11-dihydro-1H-pyrido [2,3-b][1,5] benzodiazepine]

Reference: paper PMC8780741, “Integration of In Silico, In Vitro and In Situ Tools for the Preformulation and Characterization of a Novel Cardio-Neuroprotective Compound during the Early Stages of Drug Development” (Pharmaceutics, 2022)
